Experimental data from patent publication US11389415B2, “Methods of regulating cannabinoid receptor activity-related disorders and diseases” (The United States of America as represented by the …, priority 2012, dated 2022).
Like-named read-outs stand apart in the source and are kept apart here.

Tests used:
[1] = system: GL261; test: tumor cell growth, GL261; details: read-out: IC50 (uM), GL261 (CNS); Table 6
[2] = system: U251; test: tumor cell growth, U251; details: read-out: IC50 (uM), U251 (CNS); Table 6
[3] = system: HT29; test: Thymidine (Thy) 96 well, HT29; details: read-out: IC50 (uM), HT29 (Colon Cancer)
[4] = system: A172; test: tumor cell growth, A172; details: read-out: IC50 (uM), A172 (CNS); Table 6
[5] = system: HT29; test: tumor cell growth (CTG), HT29
[6] = system: NCIH460; test: Thymidine (Thy) 96 well, NCIH460; details: read-out: IC50 (uM), NCIH460 (NSCLC)
[7] = system: LN-18; test: tumor cell growth, LN-18; details: read-out: IC50 (uM), LN-18 (CNS); Table 6
[8] = system: PANC-1; test: tumor cell growth, PANC-1; details: read-out: IC50 (uM), PANC-1 (Pancreatic C); Table 6
[9] = system: PC3; test: [3H]-Thymidine incorporation in 96-well plates (Thy), PC3; details: read-out: IC50 (uM), PC3 (Prostrate Cancer)
[10] = system: Du-145; test: tumor cell growth, Du-145; details: read-out: IC50 (uM), Du-145 (Prostate C); Table 6
[11] = system: PC3; test: tumor cell growth (CTG), PC3
[12] = system: HEPG2; test: tumor cell growth, HEPG2; details: read-out: IC50 (uM), HEPG2 (Liver C); Table 6
[13] = system: HEP3B; test: tumor cell growth (CTG), HEP3B
[14] = system: U87; test: tumor cell growth, U87; details: read-out: IC50 (uM), U87 (CNS); Table 6
[15] = system: H460; test: tumor cell growth (CTG), H460 / NCIH460
[16] = system: A549; test: tumor cell growth, A549; details: read-out: IC50 (uM), A549 (NSCLC); Table 6
[17] = system: LN-229; test: tumor cell growth (CTG), LN-229 / LN229
[18] = system: HCT116; test: Thymidine (Thy) 96 well, HCT116; details: read-out: IC50 (uM), HCT116 (Colon Cancer)
[19] = system: HEP3B; test: [3H]-Thymidine incorporation in 96-well plates (Thy), HEP3B; details: read-out: IC50 (uM), HEP3B (Liver Cancer)
[20] = system: MCF7; test: tumor cell growth, MCF7; details: read-out: IC50 (uM), MCF7 (Breast C); Table 6
[21] = system: MDAMB231; test: tumor cell growth, MDAMB231; details: read-out: IC50 (uM), MDAMB231 (Breast C); Table 6
[22] = system: HCT116; test: tumor cell growth (CTG), HCT116
[23] = system: U118; test: tumor cell growth, U118; details: read-out: IC50 (uM), U118 (CNS); Table 6
[24] = system: LN229; test: [3H]-Thymidine incorporation in 96-well plates (Thy), LN229; details: read-out: IC50 (uM), LN229 (CNS Cancer)

## COc1ccc(C[C@@H](C)NC[C@H](O)c2cc(O)cc(O)c2)c2ccccc12 [(R,R′)-MNF, (R,R′)-4′-methoxy-1-naphthylfenoterol]
[1]
  IC50: 21.3 µM
[2]
  IC50: 26.7 µM
[3]; 96 well Thy 2 days treatment
  IC50: 19.6 µM
[3]; 96 well Tye 1 day treatment
  IC50: 13 µM
[4]
  IC50: 30.5 µM
[5]; read-out: IC50 (uM), HT29 (Colon C), Table 6
  IC50: 10.7 µM
[5]; read-out: IC50 (uM), HT29 (Colon Cancer), 96 well CTG 1 day treatment
  IC50: 30.4 µM
[5]; read-out: IC50 (uM), HT29 (Colon Cancer), 96 well CTG 2 days treatment
  IC50: 11.7 µM
[5]; read-out: IC50 (uM), HT29 (Colon Cancer), 384well CTG 3 days treatment −1
  IC50: 10.7 µM
[6]; 96 well Thy 2 days treatment
  IC50: 21 µM
[6]; 96 well Tye 1 day treatment
  IC50: 25.1 µM
[7]
  IC50: 29.7 µM
[8]
  IC50: 33.4 µM
[9]; 96 well Thy 2 days treatment
  IC50: 10.8 µM
[9]; 96 well Tye 1 day treatment
  IC50: 11 µM
[10]
  IC50: 34.8 µM
[11]; read-out: IC50 (uM), PC3 (Prostate C), Table 6
  IC50: 28.1 µM
[11]; read-out: IC50 (uM), PC3 (Prostrate Cancer), 96 well CTG 1 day treatment
  IC50: 34.5 µM
[11]; read-out: IC50 (uM), PC3 (Prostrate Cancer), 96 well CTG 2 days treatment
  IC50: 20.4 µM
[11]; read-out: IC50 (uM), PC3 (Prostrate Cancer), 384well CTG 3 days treatment −1
  IC50: 28.1 µM
[12]
  IC50: 28.8 µM
[13]; read-out: IC50 (uM), HEP3B (Liver C), Table 6
  IC50: 14.7 µM
[13]; read-out: IC50 (uM), HEP3B (Liver Cancer), 96 well CTG 1 day treatment
  IC50: 28.3 µM
[13]; read-out: IC50 (uM), HEP3B (Liver Cancer), 96 well CTG 2 days treatment
  IC50: 13.5 µM
[13]; read-out: IC50 (uM), HEP3B (Liver Cancer), 384well CTG 3 days treatment −1
  IC50: 14.7 µM
[13]; read-out: IC50 (uM), HEP3B (Liver Cancer), 384well CTG 3 days treatment −2
  IC50: 12.1 µM
[14]
  IC50: 25.7 µM
[15]; read-out: IC50 (uM), H460 (NSCLC), Table 6
  IC50: 11.6 µM
[15]; read-out: IC50 (uM), NCIH460 (NSCLC), 96 well CTG 1 day treatment
  IC50: 38.9 µM
[15]; read-out: IC50 (uM), NCIH460 (NSCLC), 96 well CTG 2 days treatment
  IC50: 15.4 µM
[15]; read-out: IC50 (uM), NCIH460 (NSCLC), 384well CTG 3 days treatment −1
  IC50: 11.6 µM
[15]; read-out: IC50 (uM), NCIH460 (NSCLC), 384well CTG 3 days treatment −2
  IC50: 17.7 µM
[16]
  IC50: 23.1 µM
[17]; read-out: IC50 (uM), LN229 (CNS Cancer), 96 well CTG 1 day treatment
  IC50: 29.3 µM
[17]; read-out: IC50 (uM), LN229 (CNS Cancer), 96 well CTG 2 days treatment
  IC50: 15.7 µM
[17]; read-out: IC50 (uM), LN229 (CNS Cancer), 384well CTG 3 days treatment −1
  IC50: 26.8 µM
[17]; read-out: IC50 (uM), LN-229 (CNS), Table 6
  IC50: 26.8 µM
[18]; 96 well Thy 2 days treatment
  IC50: 11 µM
[18]; 96 well Tye 1 day treatment
  IC50: 23.8 µM
[19]; 96 well Thy 2 days treatment
  IC50: 10 µM
[19]; 96 well Tye 1 day treatment
  IC50: 10.7 µM
[20]
  IC50: 37.2 µM
[21]
  IC50: 33.2 µM
[22]; read-out: IC50 (uM), HCT116 (Colon C), Table 6
  IC50: 12.9 µM
[22]; read-out: IC50 (uM), HCT116 (Colon Cancer), 96 well CTG 1 day treatment
  IC50: 19 µM
[22]; read-out: IC50 (uM), HCT116 (Colon Cancer), 96 well CTG 2 days treatment
  IC50: 10.5 µM
[22]; read-out: IC50 (uM), HCT116 (Colon Cancer), 384well CTG 3 days treatment −1
  IC50: 12.9 µM
[22]; read-out: IC50 (uM), HCT116 (Colon Cancer), 384well CTG 3 days treatment −2
  IC50: 12.2 µM
[23]
  IC50: 37 µM
[24]; 96 well Thy 2 days treatment
  IC50: 10.4 µM
[24]; 96 well Tye 1 day treatment
  IC50: 9.64 µM
